According to patent publication US7419954B2, “Staphylococcus peptides for bacterial interference” (priority 1998, dated 2008):
pEC50, pIC50: −log10 of the molar value. Where a SMILES comes first, the peptide text is derived from it. Bridges are numbered along the chain shown (N, C = ends).

Tests used:
[1] = tested on: strain RN7206 carrying the agrCA-II agrp3-blaZ reporter fusion; experiment: Determination of AIP-II half-life: incubation in PBS or rabbit serum, then dose-response activation of β-lactamase induction; type: cell-based, S. aureus; conditions: normal rabbit serum
Protocol: (§1) Determination of AIP-II half-life. To approximate the active lifetime of AIP, a synthetic version of AIP-IL (Lyon et al. (2002) Biochemistry 41, 10095-104) was incubated in PBS or rabbit serum at 37° C. for 4 hours. The sample was diluted and a dose-response assay for activation of β-lactamase induction of strain RN7206 carrying the agrCA-II agrp3-blaZ reporter fusion was performed as previously described (Lyon et al. (2002) supra; Wright III et al. (2004) Proc. Natl. Acad. Sci., USA).

[2] = as above; type: cell-based, S. aureus; conditions: rabbit, rabbit serum; from EC50 shift PBS vs serum; given as in vivo
Protocol: as §1

[3] = tested on: agr-I bacteria (RN6734) carrying agrp3-lux or blaZp-lux; experiment: Murine subcutaneous abscess model with in vivo bioluminescence imaging; set-up: species or system SKH-1 mice; conditions: mice, single dose 10 μg co-injected with agr-I bacteria
Protocol: Murine subcutaneous abscess model. Groups (n=3 per variable examined) of hairless, euthymic SKH-1 (ISL) mice (Charles River) were used in the murine subcutaneous abscess model (Bunce et al. (1992) Infect. Immun. 60, 2636-40). In this model, staphylococci are injected subcutaneously with cytodex beads, and an abscess develops at the site of injection 2-3 days later, then sloughs and drains. The organisms grow rapidly initially, after which the population levels out and remains constant thereafter. Polymorphonuclear leuykocytes (PMNs) are attracted to the developing lesion by bacterial products and by pro-inflammatory cytokines, reaching maximum numbers by about 6 hours.
Bacteria were thawed, diluted to appropriate cell density, mixed with sterile cytodex beads (Sigma) and injected subcutaneously in a volume of 0.1 ml in the flank region. […] Mice were fed a standard diet ad libitum and monitored daily for signs of distress. Colony forming units (CFU) per abscess were determined by plating serial dilutions of excised lesions homogenized in PBS plus 0.5% Triton X-100.
Measurement of bioluminescence in vivo. […] For the graphs, the signal collected on a portion of the CCD array corresponding to the area of injected bacteria was determined in photons/sec/cm^2/sr, referred to as relative light units (RLU), and plotted vs. time after initiation of infection.

[4] = biological target: AgrC receptor of group I S. aureus (Staphylococcus aureus); experiment: cell-based or functional assay
[5] = biological target: AgrC receptor of group III S. aureus (Staphylococcus aureus); experiment: cell-based or functional assay
[6] = biological target: AgrC receptor of group II S. aureus (Staphylococcus aureus); experiment: cell-based or functional assay
[7] = biological target: agr response in group II (SA502A) S. aureus; experiment: agr P3-blaZ β-lactamase reporter assay, inhibition of the agr response; type: cell-based; conditions: for inhibition of self (own group): own S. aureus group (group II)
Protocol: (§2) The synthetic AgrD peptides shown in Table 1 include the following: Agr D1 Thiolactone. […] (SEQ ID NO: 9): Agr D2 Thiolactone, […] (SEQ lID NO: 1): Agr D2 Linear Thioester, […] (SEQ ID NO: 1): Agr D2 Linear Free Acid […] (SEQ ID NO: 1); Agr D2 Lactone, […] (SEQ ID NO: 1); and Agr D2 Lactam, GVNAXSSLF (SEQ ID NO: 1).
(§3) Biological activity of synthetic AgrD peptides. Biological assays were performed using groups I (RN6390B), II (SA502A) and III (RN8463) S. aureus strains (Ji et al. (1997) supra), each containing an agr P3-blaZ fusion plasmid (Novick et al. (1995) supra). Cells were grown in CYGP medium at 37° C. to either early exponential phase for agr activation studies, or midexponential phase for agr inhibition studies. To the cultured cells were then added one of the following: buffer solution (negative control), the appropriate cell supernatant containing the natural AgrD peptide as prepared as in (Ji, G., et al., 1995) (positive control) or the synthetic peptide solution in 20 mM tris.HCl buffer at pH 6.0.

[8] = biological target: agr response in group I (RN6390B) S. aureus; experiment: as above; type: cell-based; conditions: for IC50 Inhibition, S. aureus Group I / pIC50: group I (RN6390B), midexponential phase, 80 minutes
Protocol: as §2, §3

[9] = biological target: agr response in group III (RN8463) S. aureus; experiment: as above; type: cell-based
Protocol: as §2, §3

[10] = tested on: agr response in groups I, II and III S. aureus strains; experiment: agr P3-blaZ β-lactamase reporter assay, activation/inhibition in the three S. aureus strains; type: cell-based
Protocol: as §2, §3

[11] = biological target: agr response in group II (SA502A) S. aureus; experiment: agr P3-blaZ β-lactamase reporter assay, activation of the agr response; type: cell-based; conditions: early exponential phase, 55 minutes
Protocol: as §2, §3

[12] = biological target: agr response in group I (RN6390B) S. aureus; experiment: as above; type: cell-based; conditions: early exponential phase, 55 minutes
Protocol: as §2, §3

[13] = biological target: agr response in group III (RN8463) S. aureus; experiment: as above; type: cell-based; conditions: early exponential phase, 55 minutes
Protocol: as §2, §3

[14] = group II (SA502A), midexponential phase, 80 minutes
[15] = group III (RN8463), midexponential phase, 80 minutes

What does the source list for `CC(C)C[C@@H]1NC(=O)[C@H](CO)NC(=O)[C@H](CO)NC(=O)[C@@H](NC(=O)[C@H](C)NC(=O)[C@H](CC(N)=O)NC(=O)[C@@H](NC(=O)CN)C(C)C)CSC(=O)[C@H](Cc2ccccc2)NC1=O` [Agr D2 Thiololactone, GVNACSSLF (SEQ lID NO: 1)] (H-GVNACSSLF; thioester 5-C)?
in vitro lifetime [1]: ~4 h; half-life [2]: < 4 h; effective biological lifetime of the peptide in vivo [3]: about 3 hours

What does the source list for Agr D1 Thiolactone (peptide)?
ED50 Activation (nM), agr P3-blaZ beta-lactamase reporter [4]: 10.2 nM; IC50 Inhibition (nM), agr P3-blaZ beta-lactamase reporter [5]: 3.2 nM; IC50 Inhibition (nM), agr P3-blaZ beta-lactamase reporter [6]: 2.9 nM

With Agr D2 Lactam (peptide) as the compound, how does the IC50 Inhibition (nM), agr P3-blaZ beta-lactamase reporter [4] read?
Its IC50 Inhibition (nM), agr P3-blaZ beta-lactamase reporter is 0.21 nM.

For Agr D2 Lactone (peptide), which IC50 Inhibition (nM), agr P3-blaZ beta-lactamase reporter [4] is on record?
Its IC50 Inhibition (nM), agr P3-blaZ beta-lactamase reporter is 7.9 nM.

Which IC50 Inhibition (nM), agr P3-blaZ beta-lactamase reporter [4] does the source give for Agr D2 Thiolactone (peptide) here?
Its IC50 Inhibition (nM), agr P3-blaZ beta-lactamase reporter is 3.4 nM.

What about the IC50 Inhibition (nM), agr P3-blaZ beta-lactamase reporter [5] of the same compound?
The IC50 Inhibition (nM), agr P3-blaZ beta-lactamase reporter was 3.1 nM.

And the ED50 Activation (nM), agr P3-blaZ beta-lactamase reporter [6]?
Its ED50 Activation (nM), agr P3-blaZ beta-lactamase reporter is 3.6 nM.

What does the source list for “GVNAASSLF [Agr D2 Linear Thioester, GVNAASSLF (SEQ ID NO: 1)]”?
IC50 Inhibition, S. aureus Group II [7, 14]: No Inhibition; IC50 Inhibition, S. aureus Group I [8]: No Inhibition; IC50 Inhibition, S. aureus Group III [9, 15]: No Inhibition; activation/inhibition of the agr response ([10]; added to cultured cells at μM concentrations): unable to either activate or inhibit; ED50 Activation, S. aureus Group II [11]: No Activation; ED50 Activation, S. aureus Group I [12]: No Activation; ED50 Activation, S. aureus Group III [13]: No Activation

Which “IC50 Inhibition, S. aureus Group II” value [7, 14] does the source give for “GVNASSSLF (SEQ ID NO: 1) [Agr D2 Lactone]” here?
Its value is “No Inhibition”.

And the “inhibition of self (own group)” value [7]?
Its value is “do not inhibit self”.

And the “inhibition of the agr response in group I S. aureus strains” value [8]?
Its value is “able to inhibit”.

And the pIC50 [8]?
Its pIC50 is 8.10.

And the “inhibition of the agr response in group III S. aureus strains” value [9]?
Its value is “able to inhibit”.

And the “activation of the agr response in any of the three S. aureus strains” value [10]?
The value was “unable to activate”.

And the “ED50 Activation, S. aureus Group II” value [11]?
The value was “No Activation”.

And the “ED50 Activation, S. aureus Group I” value [12]?
Its value is “No Activation”.

And the “ED50 Activation, S. aureus Group III” value [13]?
The value was “No Activation”.

With “GVNASSSLF [Agr D2 Linear Free Acid, GVNASSSLF (SEQ ID NO: 1)]” as the compound, how does the “IC50 Inhibition, S. aureus Group II” value [7, 14] read?
Its value is “No Inhibition”.

What about the “IC50 Inhibition, S. aureus Group I” value [8] of the same compound?
Its value is “No Inhibition”.

And the “IC50 Inhibition, S. aureus Group III” value [9, 15]?
Its value is “No Inhibition”.

What about the “ED50 Activation, S. aureus Group II” value [11] of the same compound?
The value was “No Activation”.

What about the “ED50 Activation, S. aureus Group I” value [12] of the same compound?
The value was “No Activation”.

And the “ED50 Activation, S. aureus Group III” value [13]?
Its value is “No Activation”.

For “GVNAXSSLF (SEQ ID NO: 1) [Agr D2 Lactam]”, which “IC50 Inhibition, S. aureus Group II” value [7, 14] is on record?
The value was “No Inhibition”.

And the “inhibition of self (own group)” value [7]?
Its value is “do not inhibit self”.

What about the “inhibition of the agr response in group I S. aureus strains” value [8] of the same compound?
The value was “able to inhibit”.

And the pIC50 [8]?
Its pIC50 is 9.68.

And the “inhibition of the agr response in group III S. aureus strains” value [9]?
The value was “able to inhibit”.

What about the “activation of the agr response in any of the three S. aureus strains” value [10] of the same compound?
The value was “unable to activate”.

What about the “ED50 Activation, S. aureus Group II” value [11] of the same compound?
Its value is “No Activation”.

And the “ED50 Activation, S. aureus Group I” value [12]?
Its value is “No Activation”.

And the “ED50 Activation, S. aureus Group III” value [13]?
The value was “No Activation”.

With “YSTCDFIM [Agr D1 Thiolactone, YSTCDFIM (SEQ ID NO: 9)]” as the compound, how does the pIC50 [7, 14] read?
Its pIC50 is 8.54.

And the “IC50 Inhibition, S. aureus Group I” value [8]?
Its value is “No Inhibition”.

What about the pIC50 [9, 15] of the same compound?
The pIC50 was 8.49.

And the “ED50 Activation, S. aureus Group II” value [11]?
Its value is “No Activation”.

And the pEC50 ([12]; read-out: ED50 Activation, S. aureus Group I)?
The pEC50 was 7.99.

And the “ED50 Activation, S. aureus Group III” value [13]?
The value was “No Activation”.
